Values quoted from earlier work, collected in patent publication US9585959B2, “Robust controlled-release formulations” (CAMURUS AB, priority 2011, dated 2017).
Blank lines part the entries; values can stand above or below the compound they belong to. *1 amine or outer side, *2 acyl side, *3 side chain or, on linkers, in order; H or OH if unused. Where a SMILES comes first, the peptide text is derived from it. Side-chain parts run from the residue outwards. [ ]: non-standard residue; d: D form. The star is where a group is joined. Ethylenediamine = C(CN[*:2])N[*:1]; Hyp = O=C(O)[C@@H]1C[C@@H](O)CN1; Phg = N[C@H](C(=O)O)c1ccccc1; CO = O=C([*:1])[*:2]; Bn = c1ccc(C*)cc1

What was measured:
[1] = system: SSTRs (SSTR1-SSTR5)
[2] = system: somatostatin receptor subtypes sstr1,2,3 and sstr5
[3] = in vivo

Compound: C[C@@H](O)[C@@H]1NC(=O)[C@H](CCCCN)NC(=O)[C@@H](Cc2c[nH]c3ccccc23)NC(=O)[C@H](Cc2ccccc2)NC(=O)[C@@H](NC(=O)[C@H](N)Cc2ccccc2)CSSC[C@@H](C(=O)N[C@H](CO)[C@@H](C)O)NC1=O [Octreotide, D-Phe-Cys-Phe-D-Trp-Lys-Thr-Cys-Thr-ol (2-7 disulphide bridge)]
Selectivity ([1]; for SSTR2 and SSTR5): high selectivity

Affinity [2]: high affinity
Compound: NCCCC[C@@H]1NC(=O)[C@@H](Cc2c[nH]c3ccccc23)NC(=O)[C@H](c2ccccc2)NC(=O)[C@@H]2C[C@@H](OC(=O)NCCN)CN2C(=O)[C@H](Cc2ccccc2)NC(=O)[C@H](Cc2ccc(OCc3ccccc3)cc2)NC1=O [Pasireotide] (cyclo(F[Hyp]([CO-Ethylenediamine])[Phg][dW]KY(Bn)))

Compound: Ala-Gly-Cys-Lys-Asn-Phe-Phe-Trp-Lys-Thr-Phe-Thr-Ser-Cys [SST-14]
Biological half-life [3]: 1-3 minutes
Affinity of the five SSTRs ([1]; SSTR1-SSTR5): equally high affinity
